Measurements from BindingDB's records for doi:10.1016/s0960-894x(98)00175-9 (Dupont Pharmaceuticals, 1998).

Biological target: T1, Dimer of Gag-Pol polyprotein [489-587] (Human immunodeficiency virus 1, UniProt P12497)
T1 construct: 489-587
Experiment: Protease Inhibition Assay
Conditions: pH 5.5; 37 °C
Protocol: Inhibition of HIV protease was measured by assay of the cleavage of a fluorescent peptide substrate. The fluorescent product (2-aminobenzoyl-Ala-Thr-His-Gln-Val-Tyr) was separated from the fluorescent substrate by anion-exchange HPLC on a Mono-Q anion-exchange column (Pharmacia), and fluorescence was monitored at an excitation wavelength of 330 nm and an emission wavelength of 430 nm. Ki values for inhibitor binding were estimated at fixed concentrations of substrate and inhibitor from fractional activity measurements by use of the modified Michaelis-Menten equation.

SMILES: O=C1N(Cc2ccc(CO)cc2)[C@H](CC2CCCCC2)[C@H](O)[C@@H](O)[C@@H](CC2CCCCC2)N1Cc1ccc(CO)cc1 [(4R,5S,6S,7R)-4,7-bis(cyclohexylmethyl)-5,6-dihydroxy-1,3-bis({[4-(hydroxymethyl)phenyl]methyl})-1,3-diazepan-2-one]
- Ki: 32 nM

SMILES: O=C1N(Cc2ccc(CO)cc2)[C@H](Cc2ccc(F)c(F)c2)[C@H](O)[C@@H](O)[C@@H](Cc2ccc(F)c(F)c2)N1Cc1ccc(CO)cc1 [(4R,5S,6S,7R)-4,7-bis[(3,4-difluorophenyl)methyl]-5,6-dihydroxy-1,3-bis({[4-(hydroxymethyl)phenyl]methyl})-1,3-diazepan-2-one]
- Ki: 0.47 nM

SMILES: CC(C)C[C@@H]1[C@H](O)[C@@H](O)[C@@H](CC(C)C)N(Cc2ccc(CO)cc2)C(=O)N1Cc1ccc(CO)cc1 [(4R,5S,6S,7R)-5,6-dihydroxy-1,3-bis({[4-(hydroxymethyl)phenyl]methyl})-4,7-bis(2-methylpropyl)-1,3-diazepan-2-one]
- Ki: 38 nM

SMILES: O=C1N(Cc2ccc(CO)cc2)[C@H](Cc2ccncc2)[C@H](O)[C@@H](O)[C@@H](Cc2ccncc2)N1Cc1ccc(CO)cc1 [(4R,5S,6S,7R)-5,6-dihydroxy-1,3-bis({[4-(hydroxymethyl)phenyl]methyl})-4,7-bis(pyridin-4-ylmethyl)-1,3-diazepan-2-one]
- Ki: 4.8 nM

SMILES: COc1cccc(C[C@@H]2[C@H](O)[C@@H](O)[C@@H](Cc3cccc(OC)c3)N(Cc3ccc(CO)cc3)C(=O)N2Cc2ccc(CO)cc2)c1 [(4R,5S,6S,7R)-5,6-dihydroxy-1,3-bis({[4-(hydroxymethyl)phenyl]methyl})-4,7-bis[(3-methoxyphenyl)methyl]-1,3-diazepan-2-one]
- Ki: 0.11 nM

SMILES: O=C1N(CC2CC2)[C@H](Cc2cccs2)[C@H](O)[C@@H](O)[C@@H](Cc2cccs2)N1CC1CC1 [(4R,5S,6S,7R)-Hexahydro-5,6-dihydroxy-1,3-bis-(cyclopropylmethyl)-4,7-bis(2-thienylmethyl)-2H-1,3-diazapin-2-one]
- Ki: 9.1 nM

SMILES: CSCC[C@@H]1[C@H](O)[C@@H](O)[C@@H](CCSC)N(Cc2ccc(CO)cc2)C(=O)N1Cc1ccc(CO)cc1 [(4R,5S,6S,7R)-Hexahydro-5,6-dihydroxy-1,3-bis-[[4-(hydroxymethyl)phenyl]methyl]-4,7-bis[2-(methylthio)ethyl]-2H-1,3-diazapin-2-one]
- Ki: 3900 nM

SMILES: O=C1N(Cc2ccc(CO)cc2)[C@H](Cc2ccc(F)cc2)[C@H](O)[C@@H](O)[C@@H](Cc2ccc(F)cc2)N1Cc1ccc(CO)cc1 [(4R,5S,6S,7R)-Hexahydro-5,6-dihydroxy-1,3-bis-[[4-(hydroxymethyl)phenyl]methyl]-4,7-bis[(4-fluorophenyl)methyl]-2H-1,3-diazapin-2-one]
- Ki: 0.44 nM

SMILES: COc1ccc(C[C@@H]2[C@H](O)[C@@H](O)[C@@H](Cc3ccc(OC)cc3)N(Cc3ccc(CO)cc3)C(=O)N2Cc2ccc(CO)cc2)cc1 [(4R,5S,6S,7R)-Hexahydro-5,6-dihydroxy-1,3-bis-[[4-(hydroxymethyl)phenyl]methyl]-4,7-bis[(4-methoxyphenyl)methyl]-2H-1,3-diazapin-2-one]
- Ki: 0.24 nM

SMILES: O=C(Nc1nc2ccccc2[nH]1)c1cccc(CN2C(=O)N(Cc3cccc(C(=O)Nc4nc5ccccc5[nH]4)c3)[C@H](Cc3ccccc3)[C@H](O)[C@@H](O)[C@H]2Cc2ccccc2)c1 [N-(1H-1,3-benzodiazol-2-yl)-3-{[(4R,5S,6S,7R)-3-{[3-(1H-1,3-benzodiazol-2-ylcarbamoyl)phenyl]methyl}-4,7-dibenzyl-5,6-dihydroxy-2-oxo-1,3-diazepan-1-yl]methyl}benzamide]
- Ki: 0.024 nM
